The numbers were not newly measured in patent publication US20130101864A1, “Multifunctional Long-Acting Rust-Proof Film and Manufacturing Method Thereof” (Zhejiang Great Southeast Packaging Co., Ltd., priority 2010, published 2013), which cites them from elsewhere.

The conditions of data set [1]: no harmful physiological toxicity on human body.

For the molecule `c1ccc2[nH]nnc2c1` [Benzotriazole], the toxicity result in data set [1] is “non-toxic”. Also, the “solubility in organic solvents” value (alcohol, benzene, toluene, chloroform and dimethylformamide) is on record as “soluble”. The solubility in water result (water) was “slightly soluble”.
